Results as given in ChEMBL document CHEMBL1151582, “The effect of pH on the solution structure of 1-pyrroline-2-carboxylic acid as revealed by NMR and electrospray mass spectroscopy” (Bioorg Med Chem Lett, 1993).

Tests used:
[1] = Acid dissociation constant of compound was determined (for carboxylic acid group); format: ADME
[2] = Acid dissociation constant of compound was determined (for pyrrolinium group); format: ADME

## O=C(O)C1=NCCC1
[1]
  pKa: 1.8
[2]
  pKa: 6.2
